# Experiments:
# in vivo = conditions: for Co (Brain), highest concentration achieved in mouse brain: i.v. injection of 3 mg/kg; for Kp: in vivo
# Procedure: FIG. 5: Pharmacokinetics of pro-galantamine Gln-1062 (3 mg/kg) in the mouse. […] FIG. 5b is an excerpt (“zoom”) of FIG. 5a, showing the concentration range between 0.00 and 1.00 μg/g (substance/body weight) more in detail.
# Co is the highest pro-galantamine concentration (ng/ml) achieved in mouse brain after i.v. injection of 3 mg/kg of pro-galantamine. R-Pro is the brain-to-blood concentration ratio of pro-galantamine, R-Gal that of galantamine under these experimental conditions. For comparison, Co and R-Gal are also provided for i.v. injection of the same amount of galantamine.
# Determination of the pharmacokinetic profiles of Gln-1062 and its cleavage product galantamine in blood and brain. Determine the brain-to-blood concentration ratios of Gln-1062 and its cleavage product galantamine, and assess the blood-brain barrier penetration capacities.
# Analytical method for estimation of Gln-1062 was evaluated for its linearity, precision & accuracy and recovery in SAM blood and brain homogenate using LC/MS/MS.
# Blood samples were collected from the retro-orbital plexus. 0.5 ml of blood was collected into a pre-labeled polypropylene micro centrifuge tube containing sodium citrate as the anticoagulant, and kept on ice.
# Immediately after blood withdrawal, brain was perfused with phosphate buffer saline (pH 7.4), removed and frozen on dry ice.
# Brain samples were thawed on ice and weighed. n appropriate volume ice cold homogenizing media (methanol:water::20:80,v/v) added. n ice, homogenized the brain sample with the polytron homogenizer and make up the volume with homogenizing media to get 1 gm of brain per 4 mL of homogenate. after homogenizing, immediately freezed the brain homogenate samples at −80° C. until analysis.
# [1] = unmodified drug; cited from earlier work
# [2] = biological target: T1, a4β2 neuronal nicotinic acetylcholine receptor (Homo sapiens, UniProt P17787+P43681); assay: Whole-cell patch clamp recording of allosteric potentiation in HEK-293 cells; format: cell-based
# T1 construct: expressed in transfected cells; host or cells: HEK-293
# T1 sequence (P43681 29-627 limits assumed): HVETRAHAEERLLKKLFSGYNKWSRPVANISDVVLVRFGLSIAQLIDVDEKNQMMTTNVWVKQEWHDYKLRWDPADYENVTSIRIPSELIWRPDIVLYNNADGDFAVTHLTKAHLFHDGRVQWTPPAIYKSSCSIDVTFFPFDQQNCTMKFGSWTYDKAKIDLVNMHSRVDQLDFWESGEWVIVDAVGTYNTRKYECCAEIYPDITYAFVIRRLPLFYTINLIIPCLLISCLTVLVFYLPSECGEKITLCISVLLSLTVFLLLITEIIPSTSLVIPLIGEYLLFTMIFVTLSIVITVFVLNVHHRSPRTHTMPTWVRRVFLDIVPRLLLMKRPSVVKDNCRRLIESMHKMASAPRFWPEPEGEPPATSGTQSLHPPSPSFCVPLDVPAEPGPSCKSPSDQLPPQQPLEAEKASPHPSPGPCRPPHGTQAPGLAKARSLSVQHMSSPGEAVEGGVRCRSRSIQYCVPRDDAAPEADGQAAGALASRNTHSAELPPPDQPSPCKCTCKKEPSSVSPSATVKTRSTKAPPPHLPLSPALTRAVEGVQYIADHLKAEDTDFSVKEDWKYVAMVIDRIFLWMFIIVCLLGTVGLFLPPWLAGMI
# T1 sequence (P17787 26-502): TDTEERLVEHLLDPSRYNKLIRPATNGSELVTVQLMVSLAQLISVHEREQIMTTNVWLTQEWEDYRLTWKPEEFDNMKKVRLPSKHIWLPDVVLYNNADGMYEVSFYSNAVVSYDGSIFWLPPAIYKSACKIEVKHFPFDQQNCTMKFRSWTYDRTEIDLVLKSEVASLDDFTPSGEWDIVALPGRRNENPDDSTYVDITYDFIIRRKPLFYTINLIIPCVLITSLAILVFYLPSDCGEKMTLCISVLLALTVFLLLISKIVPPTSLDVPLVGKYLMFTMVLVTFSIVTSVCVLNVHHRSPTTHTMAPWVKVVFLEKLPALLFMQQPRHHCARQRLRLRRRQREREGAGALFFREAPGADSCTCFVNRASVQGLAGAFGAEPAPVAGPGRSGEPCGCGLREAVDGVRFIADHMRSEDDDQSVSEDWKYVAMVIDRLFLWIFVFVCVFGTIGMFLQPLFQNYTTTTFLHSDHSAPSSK
# Procedure: FIG. 4: Interaction of galantamine and pro-galantamine with a4β2 neuronal nicotinic acetylcholine receptor ectopically expressed in HEK-293 cells. The increase in response to acetylcholine in the presence of galantamine and Gln-1062, respectively, was determined by whole-cell patch clamp recording. Galantamine achieved a maximal enhancement of response of ˜40% whereas the pro-galantamine achieved a maximal enhancement of only ˜17%.
# Investigation of the allosteric modulation effect of drug candidates on nicotinic acetylcholine receptors (nAChRs) expressed in HEK-293 cells by electrophysiology. Results shown as FIG. 4.
# Single HEK-293 cells expressing either human α4β2, human α3β4, or chimeric chicken α7 (with mouse 5HT3) nAChR were plated on fibronectin-coated cover slips for 3 days before measurement. […] A programmable puller (Sutter, USA) was used to prepare a twin pair of ready for use pipettes. […] To evaluate an allosteric potentiating ligand (APL) effect of selected compounds on each subtype of nAChR, they were added to stimulating nicotine solutions at the following concentrations: 1, 5, 10, 50, 100, 500, 1,000, 5,000 and 10,000 nM, and solutions were applied to the cell surface during 500 ms pulses through the U-tube, and then corresponding currents, digitized to 10 kHz, were recorded for 10 s. […]
# [3] = cited from earlier work
# brain cholinesterase = biological target: T2, brain cholinesterase (Mus musculus, UniProt P21836); format: biochemical; conditions: mouse brain homogenate, 200 μM acetylthiocholine; pro-galantamines up to 50 μM
# T2 construct: from tissue; host or cells: mouse brain homogenate
# T2 sequence (P21836 32-614): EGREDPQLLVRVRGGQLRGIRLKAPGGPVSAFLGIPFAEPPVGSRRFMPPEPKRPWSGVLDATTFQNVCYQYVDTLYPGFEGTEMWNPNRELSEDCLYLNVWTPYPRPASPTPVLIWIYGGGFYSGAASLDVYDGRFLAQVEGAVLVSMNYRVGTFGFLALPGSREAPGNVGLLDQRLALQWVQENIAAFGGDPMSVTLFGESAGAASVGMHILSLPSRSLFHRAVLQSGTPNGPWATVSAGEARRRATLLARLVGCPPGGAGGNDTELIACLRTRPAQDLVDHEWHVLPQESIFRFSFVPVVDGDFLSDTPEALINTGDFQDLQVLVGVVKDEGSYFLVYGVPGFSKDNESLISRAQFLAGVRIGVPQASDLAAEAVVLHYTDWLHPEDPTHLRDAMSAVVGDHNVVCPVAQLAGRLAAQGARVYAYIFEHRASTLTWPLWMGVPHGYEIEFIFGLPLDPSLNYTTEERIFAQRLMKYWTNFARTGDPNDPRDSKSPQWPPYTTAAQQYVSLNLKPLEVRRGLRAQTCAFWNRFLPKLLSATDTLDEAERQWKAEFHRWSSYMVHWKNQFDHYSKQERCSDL
# Procedure: A 20% mouse brain homogenate was used, supplemented with 200 μM of acetylthiocholine as substrate, and the initial reaction kinetics were measured according to Riddles P W, Blakeley R L, Zerner B., “Reassessment of Ellman's reagent” Methods Enzymol.
# The brain is removed from the animal (mouse), shock frozen in liquid nitrogen and stored at minus 80° C. until use. Before preparing the extract, the frozen brain is thawed on ice and the weight is determined. Ice cold buffer (130 mM NaCl, 5 mM KCl, 2.5 mM CaCl2, 1 mM MgCl2, 5 mM Glucose, 5 mM HEPES, pH 7.4) is added to the thawed mouse brain (1:4, weight to volume, resulting in a 20% brain homogenate). The tissue is then homogenized in a potter homogeniser on ice, moving the piston up and down 11 times at 240 rpm. The freshly prepared mouse brain homogenate is divided into aliquots.
# A modified Ellmann's esterase test is used. Briefly the method relies on the cleavage of the substrate acetylthiocholine to acetate and thiocholine. […] The inhibition is expressed as percent of the non inhibited reaction according to following equation: […]
# [4] = tested on: scopolamine-induced amnesia in mice; assay: Reversal from scopolamine-induced amnesia in mice, T-maze alternation; format: in vivo, mouse; conditions: i.p.
# Procedure: Scopolamine induces a memory deficit that can be measured by […] alternation in a T-maze trial. The cognition enhancing drugs were i.p. injected at several different doses together with scopolamine 20 min before a T-maze trial. Recovery was measured as a function of dose, and the EC50 was determined for each drug.
# Analysis of variance (ANOVA) was performed on the result data.
structure (smiles),measurement,setting,value
CCC(C)C(=O)O[C@H]1C=C[C@@]23CCN(C)Cc4ccc(OC)c(c42)OC3C1 (stereo partly drawn) [GLN-1067],"Co (Brain), highest concentration achieved in mouse brain",in vivo,4665 ng/mL
same,Kp,"in vivo; mouse, iv, 3 mg/kg",7.5
COc1ccc2c3c1O[C@H]1C[C@@H](O)C=C[C@@]31CCN(C)C2 [Galantamine],brain-to-plasma ratio,[1],~1.3
same,"Co (Brain), highest concentration achieved in mouse brain",in vivo,1741 ng/mL
same,Kp,"in vivo; mouse, 3 mg/kg",~1.3
same,maximal enhancement of response to acetylcholine,[2],~40%
same,"tissue to plasma ratio (T/P), spleen",[3]; female rat,~20
same,"tissue to plasma ratio (T/P), kidney",[3]; male and female rat,10-15
same,"tissue to plasma ratio (T/P), salivary and adrenal gland",[3]; male and female rat,7-14
same,brain to plasma ratio (T/P),[3]; rat,~1.5
same,"tissue to plasma ratio (T/P), lung, liver, heart, skeletal muscle and testes",[3]; rat,2-4
CCC(=O)O[C@H]1C=C[C@@]23CCN(C)Cc4ccc(OC)c(c42)O[C@H]3C1 [GLN-0978],"Co (Brain), highest concentration achieved in mouse brain",in vivo,1985 ng/mL
same,Kp,"in vivo; mouse, iv, 3 mg/kg",6.9
COc1ccc2c3c1O[C@H]1C[C@@H](OC(=O)C(C)C)C=C[C@@]31CCN(C)C2 [GLN-0979],"Co (Brain), highest concentration achieved in mouse brain",in vivo,3166 ng/mL
same,Kp,"in vivo; mouse, iv, 3 mg/kg",6.2
COc1ccc2c3c1OC1C[C@@H](OC(=O)C4CC4)C=C[C@@]31CCN(C)C2 (stereo partly drawn) [GLN-1076],"Co (Brain), highest concentration achieved in mouse brain",in vivo,1245 ng/mL
same,Kp,"in vivo; mouse, iv, 3 mg/kg",1.1
"C=C[C@@]12C=C[C@H](O)C[C@@H]1Oc1c(OC)ccc(CNC)c12 [10,11-Seco-11,12-dehydro-galantamine, (3R,4aS,9bS)-6-Methoxy-9-methylaminomethyl-3,4,4a,9b-tetrahydro-9b-vinyl-dibenzofuran-3-ol]",melting point,,127 to 129 °C
"COc1ccc2c3c1OC1C[C@@H](OC(=O)c4ccccc4)C=C[C@@]31CCN(C)C2 (stereo partly drawn) [GLN-1062, (4aS,6R,8aS)-4a,5,9,10,11,12-Hexahydro-3-methoxy-11-methyl-6H-benzofuro[3a,3,2-ef][2]benzazepin-6-ol, benzoate (ester)]",inhibition of brain cholinesterase,brain cholinesterase,"little, if any cholinesterase inhibitory activity"
same,Kp,"in vivo; SAM, mouse",> 19
same,"Co (Brain), highest concentration achieved in mouse brain",in vivo,4812 ng/mL
same,concentration of GLN-1062 in blood at start of curve,"in vivo; mouse, 3 mg/kg, FIG. 5b",about 0.3 μg/g
same,Kp,"in vivo; mouse, iv, 3 mg/kg",19.3
same,maximal enhancement of response to acetylcholine,[2],~17%
same,potency relative to galantamine in reversing scopolamine-induced amnesia,[4],approximately 4 times
CCCCCC(=O)O[C@H]1C=C[C@@]23CCN(C)Cc4ccc(OC)c(c42)O[C@H]3C1 [GLN-0993],"Co (Brain), highest concentration achieved in mouse brain",in vivo,2150 ng/mL
same,Kp,"in vivo; mouse, iv, 3 mg/kg",6.4

# From patent publication US20090253654A1 (priority 2005, published 2009)
